The term AUC(0-t) denotes the area under the concentration-time curve up to a stated or last time point. High values mean high exposure, low ones low exposure.

From PMC11187260, “Unraveling the interconversion pharmacokinetics and oral bioavailability of the major ginger constituents: [6]-gingerol, [6]-shogaol, and zingerone after single-dose administration in rats” (Frontiers in Pharmacology, 2024) come the findings set out here.

What all share (assay type): in vivo, Female Sprague Dawley rats
Data set [1] can be described thus: Percent recovery in urine and feces after intravenous or oral administration. As to conditions: % of administered dose. On the procedure: (§1) This study is composed of two sections; the first section involves an investigation of the interconversion pharmacokinetics of the pure compounds, and the second focuses on tissue distribution. All rats were transferred to metabolic cages and fasted overnight for at least 10 h. The animals were then randomly divided into four groups (6 rats/group) to receive a single intravenous (i.v.) administration of either 6G, 6S, zingerone, or vehicle via the lateral tail vein at a dosage of 3 mg/kg. After a 7-week washout period, the rats received 30 mg/kg of the same test compounds through a single oral (p.o.) administration. Following each administration, blood samples (300 µL) were collected in heparinized tubes from the lateral tail vein (while rats were under anesthesia with isoflurane) at specified time points: 0.083, 0.25, 0.5, 1, 1.5, 2, 3, 4, 6, 8, and 24 h after administration. An additional 1 mL of blood sample was collected from each rat at pre-dose (0 h) and post-dose (24 h) for clinical laboratory testing and safety evaluation. All heparinized blood samples were initially centrifuged at 5,000 × g, 4 °C, for 10 min. Subsequently, the plasma was carefully transferred to a cryotube as an aliquot sample and then stored at −40 °C until analysis. Urine and feces were collected during the intervals of 0–24 h and 24–48 h post-dosing, and their weights and volumes were documented. All collected urine and feces samples were stored at −40 °C until analysis.
Urine samples were centrifuged, and 50 µL of urine was extracted with 200 µL of 100% methanol. The mixture was vortexed for 10 min and subsequently centrifuged at 14,000 × g at 4 °C for 10 min. Feces and organs were weighed and homogenized with methanol (50:50% w/v). The supernatants of the extracted urine, feces, and organs were also filtered through a […] PVDF membrane (Chrome Tech, MN, USA) before analysis.
(§2) Investigation of glucuronide conjugations followed a previously published method with some modification ([Wang et al., 2017]; [Songvut et al., 2023]). A 50 μL aliquot of plasma, urine, or feces sample was incubated at 37 °C for a minimum of 30 min with 50 μL of β-glucuronidase (3,000 U/mL) in a sodium phosphate buffer (pH 6.8). For sample extraction, 150 μL of methanol containing 50 μg/L of IS was pipetted into the pre-incubated samples. Subsequently, the mixtures were vortexed for 10 min and then centrifuged at 14,000 × g at 4 °C for 10 min. The supernatants were filtered through a […] PVDF membrane (Chrome Tech, MN, United States) and then analyzed using the validated LC-MS/MS method.
(§3) Plasma concentration-time profiles were plotted using GraphPad Prism 9.3.0 (GraphPad Software, USA). The absolute oral bioavailability was calculated as follows: F = (AUC p.o./dose p.o.)/(AUC i.v./dose i.v.). The percentage recovery of each administered compound was calculated as the total amount of the drug found in urine or feces divided by the administered dose. The tissue-to-plasma concentration ratios (K p) were calculated by dividing the concentration in the tissue by the corresponding plasma concentration at the respective sampling time point.

A short description of data set [2]: Pharmacokinetics after single intravenous administration (3 mg/kg), plasma LC-MS/MS. As to conditions: mean ± SD n=6. Here is the method: This study is composed of two sections; the first section involves an investigation of the interconversion pharmacokinetics of the pure compounds, and the second focuses on tissue distribution. All rats were transferred to metabolic cages and fasted overnight for at least 10 h. The animals were then randomly divided into four groups (6 rats/group) to receive a single intravenous (i.v.) administration of either 6G, 6S, zingerone, or vehicle via the lateral tail vein at a dosage of 3 mg/kg. After a 7-week washout period, the rats received 30 mg/kg of the same test compounds through a single oral (p.o.) administration. Following each administration, blood samples (300 µL) were collected in heparinized tubes from the lateral tail vein (while rats were under anesthesia with isoflurane) at specified time points: 0.083, 0.25, 0.5, 1, 1.5, 2, 3, 4, 6, 8, and 24 h after administration. An additional 1 mL of blood sample was collected from each rat at pre-dose (0 h) and post-dose (24 h) for clinical laboratory testing and safety evaluation. All heparinized blood samples were initially centrifuged at 5,000 × g, 4 °C, for 10 min. Subsequently, the plasma was carefully transferred to a cryotube as an aliquot sample and then stored at −40 °C until analysis. Urine and feces were collected during the intervals of 0–24 h and 24–48 h post-dosing, and their weights and volumes were documented. All collected urine and feces samples were stored at −40 °C until analysis. Plasma samples were processed through protein precipitation. In brief, 50 µL of plasma was mixed with 200 µL of methanol containing 50 ng/mL of IS (dihydrocapsaicin). The mixtures were vortexed and centrifuged at 14,000 × g at 4 °C for 10 min. The supernatant was filtered through a […] PVDF membrane (Chrome Tech, MN, USA) before analysis. Investigation of glucuronide conjugations followed a previously published method with some modification ([Wang et al., 2017]; [Songvut et al., 2023]). A 50 μL aliquot of plasma, urine, or feces sample was incubated at 37 °C for a minimum of 30 min with 50 μL of β-glucuronidase (3,000 U/mL) in a sodium phosphate buffer (pH 6.8). For sample extraction, 150 μL of methanol containing 50 μg/L of IS was pipetted into the pre-incubated samples. Subsequently, the mixtures were vortexed for 10 min and then centrifuged at 14,000 × g at 4 °C for 10 min. The supernatants were filtered through a […] PVDF membrane (Chrome Tech, MN, United States) and then analyzed using the validated LC-MS/MS method. Quantitative analysis was conducted using liquid chromatography-tandem mass spectrometry (LC-MS/MS) with a Nexera X2 LCMS-8060NX instrument (Shimadzu, Japan). The instrument included a CBM-40lite system controller, CTO-40C column oven, SIL-40C XR autosampler, LC-40D XR solvent pump unit, FCV-DGU-403 degasser, and 20AH2 switching valve. The LC-MS/MS system was operated with a binary pump and equipped with a triple quadrupole mass spectrometer. Pharmacokinetic parameters were assessed using PK Solutions software (version 2.0) with non-compartmental analysis. The AUC was calculated using the Linear-Log Trapezoidal Method. The maximum plasma concentration (Cmax) and time to reach maximum plasma concentration (Tmax) were taken directly from the graph.

Data set [3] in a line: Pharmacokinetics and oral bioavailability after single oral administration (30 mg/kg), plasma LC-MS/MS. The following applies: for AUC(0-t) / AUC(0-∞) / Cmax (obs): mean ± SD n=6; for Tmax (obs): median [IQR]. Here is the method: as §1
Plasma samples were processed through protein precipitation. In brief, 50 µL of plasma was mixed with 200 µL of methanol containing 50 ng/mL of IS (dihydrocapsaicin). The mixtures were vortexed and centrifuged at 14,000 × g at 4 °C for 10 min. The supernatant was filtered through a […] PVDF membrane (Chrome Tech, MN, USA) before analysis.
as §2
Quantitative analysis was conducted using liquid chromatography-tandem mass spectrometry (LC-MS/MS) with a Nexera X2 LCMS-8060NX instrument (Shimadzu, Japan). The instrument included a CBM-40lite system controller, CTO-40C column oven, SIL-40C XR autosampler, LC-40D XR solvent pump unit, FCV-DGU-403 degasser, and 20AH2 switching valve. The LC-MS/MS system was operated with a binary pump and equipped with a triple quadrupole mass spectrometer.
Pharmacokinetic parameters were assessed using PK Solutions software (version 2.0) with non-compartmental analysis. The AUC was calculated using the Linear-Log Trapezoidal Method. The maximum plasma concentration (Cmax) and time to reach maximum plasma concentration (Tmax) were taken directly from the graph.
as §3

Setting [4] is: intravenous administration 3 mg/kg of parent compound.
Where [5] appears, read: oral administration 30 mg/kg of parent compound.
Setting [6] is: plasma analyte after zingerone i.v. 3 mg/kg.
Where [7] appears, read: plasma analyte after zingerone p.o. 30 mg/kg.
The mark [8] stands for this setting: plasma analyte after [6]-shogaol i.v. 3 mg/kg.
Where [9] appears, read: plasma analyte after [6]-shogaol p.o. 30 mg/kg.
The mark [10] stands for this setting: plasma analyte after [6]-gingerol i.v. 3 mg/kg.
Where [11] appears, read: plasma analyte after [6]-gingerol p.o. 30 mg/kg.

`COc1cc(CCC(C)=O)ccc1O[C@@H]1O[C@H](C(=O)O)[C@@H](O)[C@H](O)[C@H]1O` [zingerone glucuronide]: in data set [1] (setting [4]), the “% Recovery excretion, urine T 0–24 h” value is reported as 7.396 ± 6.349% and the “% Recovery excretion, urine T 24–48 h” value is listed as under 0.001%. Also, in data set [1] (setting [5]), the “% Recovery excretion, urine T 0–24 h” value worked out at 4.245 ±3.009% and the “% Recovery excretion, urine T 24–48 h” value is reported as 0.166 ± 0.075%. Besides, in data set [2] (setting [6]), the “AUC(0-t)” value was 12,873.76 ± 12,580.54 ng-h/mL and the “AUC(0-∞)” value is 12,903.70 ± 12,585.11 ng-h/mL. Besides, the “AUC(0–∞) of glucuronide compared to AUC(0–∞) of unconjugated compound” value in data set [3] (after zingerone oral administration 30 mg/kg) stood at 6 fold. Also, in data set [3] (setting [7]), the “AUC(0-t)” value was 5847.24 ± 134.65 ng·h/mL, the “AUC(0-∞)” value stood at 5847.24 ± 134.65 ng·h/mL, the “Cmax (obs)” value is listed as 4593.37 ± 1192.68 ng/mL and the “Tmax (obs)” value was 0.25 [0.00] h.
As for `CCCCC/C=C/C(=O)CCc1ccc(O[C@@H]2O[C@H](C(=O)O)[C@@H](O)[C@H](O)[C@H]2O)c(OC)c1` [[6]-shogaol glucuronide], in data set [1] (setting [4]), the “% Recovery excretion, feces T 0–24 h” value worked out at 0.003 ± 0.003%; the “% Recovery excretion, feces T 24–48 h” value is 0.004 ± 0.001%; the “% Recovery excretion, urine T 0–24 h” value was found to be 0.153 ± 0.112%; the “% Recovery excretion, urine T 24–48 h” value is recorded as under 0.001%. Further, in data set [1] (setting [5]), the “% Recovery excretion, urine T 0–24 h” value turned out to be 0.042 ± 0.037% and the “% Recovery excretion, urine T 24–48 h” value is under 0.001%. In data set [2] (setting [8]), the “AUC(0-t)” value is recorded as 7,966.49 ± 3,782.71 ng-h/mL and the “AUC(0-∞)” value is listed as 7,974.90 ± 3,786.32 ng-h/mL. In data set [3] (setting [9]), the “AUC(0-t)” value stood at 11.88 ± 1.87 ng·h/mL, the “AUC(0-∞)” value is 11.89 ± 1.87 ng·h/mL, the “Cmax (obs)” value was found to be 18.54 ± 6.93 ng/mL and the “Tmax (obs)” value is 0.375 [0.25] h.
In the case of [6]-gingerol glucuronide, in data set [1] (setting [4]), the “% Recovery excretion, urine T 0–24 h” value is 5.712 ± 2.768% and the “% Recovery excretion, urine T 24–48 h” value turned out to be 0.146 ± 0.073%. Besides, in data set [1] (setting [5]), the “% Recovery excretion, urine T 0–24 h” value is 3.416 ± 1.735% and the “% Recovery excretion, urine T 24–48 h” value came out at 0.036 ± 0.027%. Also, in data set [2] (setting [10]), the “AUC(0-t)” value was 11,087.06 ± 7,432.61 ng-h/mL and the “AUC(0-∞)” value was 11,087.09 ± 7,432.598 ng-h/mL. In data set [3] (setting [11]), the “AUC(0-t)” value worked out at 549.22 ± 272.42 ng·h/mL, the “AUC(0-∞)” value turned out to be 603.05 ± 268.67 ng·h/mL, the “Cmax (obs)” value was 539.42 ± 377.66 ng/mL and the “Tmax (obs)” value was 0.25 [0.00] h.
